Here are results for two compounds from patent US20080269266A1, “NOVEL COMPOUNDS 747” (ASTRAZENECA AB, priority 2007, published 2008).

Where only a bound is given, the exact number is not on record here.

The target in series [1] is T1, human cytochrome P450 (CYP) 2D6 (Homo sapiens, UniProt P10635).
T1 construct: made in house; host or cells: yeast cell lines (microsomal fractions)
The series can be described thus: Cytochrome P450 Inhibition Assay 2D6. It is filed as in vitro ADME. As to conditions: test compound final concentrations 0.1-10 μM; substrate MAMC. The procedure:
The inhibitory potential (IC50) of test compounds against 5 human cytochrome P450 (CYP) isoforms (1A2, 2C9, 2C19, 3A4 and 2D6) was assessed using an automated fluorescent end point in vitro assay modified from Crespi (Crespi and Stresser, 2000). Microsomal subcellular fractions prepared from Yeast cell lines expressing each human CYP isoform were used as an enzyme source in this assay. The activity of the 5 major human CYPs was determined from the biotransformation of a number of coumarin substrates to fluorescent metabolites, in the presence of NADPH. […] Stock solutions of each CYP, with its respective substrate, were prepared in phosphate buffer pH7.4 (see Table 1) and 178 μl was added to the well of a black solid, flat bottom, 300 μl 96 well is microtitre plate (Corning Costar). […] After pre-incubating at 37° C. for 5 min the reactions were started with addition of NADPH (20 μl, concentration shown in Table 1). […] The appropriate solvent controls and substrate blanks were included in each experiment to assess control activity and identify any inherent fluorescence due to the test compounds. […] The plates were read on a fluorimeter (Spectrafluor Plus) at the appropriate excitation and emission wavelengths (listed in Table 2) and the percent activity, corrected for control, was plotted against the test compound concentration.

Series [2] is described as follows: Protein binding by equilibrium dialysis. It is filed as in vitro ADME. Particulars: rat, equilibrium dialysis against 10% plasma, 37° C., read-out: Protein binding, % free. On the procedure:
Protein binding is determined by equilibrium dialysis. A 20 iM concentration of compound is dialyzed against 10% plasma at a temperature of 37° C. for 18 h. The resulting samples are analyzed using generic HPLC-UV methodology coupled with mass spectral peak identification. The reported K1 value is the first apparent association constant [proteináligand]/([protein][ligand]), all concentrations being measured in moles/liter (J. Med. Chem., 2006, 49(23), 6672-6682).
Protein binding can be measured in a high-throughput screen by equilibrium dialysis combined with liquid chromatography and mass spectrometry (Wan, H. and Rehngren, M., J. Chromatogr. A 2006, 1102, 125-134).
A general note: In equilibrium dialysis free small molecules cross a membrane that holds back macromolecules.

The target of a further series is T2, human IR (Homo sapiens, UniProt P06213).
T2 construct: expressed in transfected cells; host or cells: CHOT cells (CHO stably transfected with human IR)
The series can be described thus: Inhibition of Insulin Receptor Phosphorylation in CHOT cells. The class given is cell-based. As to conditions: for IC50: median, CHOT cells stimulated with 30 nM Insulin. The procedure: This immunofluorescence end point cell assay measures the ability of a test compound to reduce the measured levels of IR phosphorylation after insulin stimulation in CHOT cells. CHOT cells are Chinese Hamster Ovary cells (CHO) stable transfected with human IR. CHOT cells are routinely cultured in Hams F12 growth medium supplemented with 200 ug/ml Geneticin, 2.5 mM HEPES, 2 mM L-Glutamine (Invitrogen Code no. 25030-024) and 10% (v/v) foetal bovine serum (FBS) in a 5% CO2 air incubator at 37° C.
To undertake the assay, the CHOT cells are seeded at 5×10^3 cells/well in Hams F12 medium plus 2.5 mM HEPES, 1% foetal calf serum and 2 mM L-Glutamine in 96-well black Packard View plates (PerkinElmer 6005182) and incubated at 37° C. (+5% CO2) in a humidified incubator. The following day, the plates are dosed with 10 μl of 10× concentrated compound (diluted from 10 mM stock in DMSO and Hams F12 without serum) and the plates are returned to a humidified 37° C. (+5% CO2) incubator for 30 minutes. […]
Following the compound treatment, the CHOT cells are stimulated with a final concentration of 30 nM Insulin (Sigma #I-9278) for 10 minutes at 37° C. […] Additionally, in-house antibodies raised against phospho IR were also used at a suitable titre determined for each batch. […]
The Green Fluorescent phospho IR-associated signal in each well was measured using an Acumen Explorer HTS Reader (TTP Labtech Ltd., Cambridge). Phospho IR-associated fluorescence emission can be detected at 530 nm following excitation at 488 nm. The instrument is a laser-scanning fluorescence microplate cytometer, which samples the well at regular intervals and uses threshold algorithms to identify all fluorescent intensities above the solution background without the need to generate and analyse an image. These fluorescent objects can be quantified and provide a measure of the phospho IR levels in cells. Fluorescence dose response data obtained with each compound was exported into a suitable software package (such as Origin) to perform curve fitting analysis. […]

The target in series [3] is hERG (human ether-a-go-go-related gene) ion channel (Homo sapiens, UniProt Q12809). Kind of series: hERG. The class given is cell-based. From the text:
Conclusion: Compounds of the present invention (Example 1) while showing good IGF inhibition, also show decreased Cytochrome P450 inhibition when compared to a known IGF inhibitor (Comparative Example A). Low inhibition of Cytochrome P450 is desirable to ameliorate potential drug: drug interactions. hERG hERG can be tested according to the methods described in Journal of Pharmacolgical and Toxicological Methods 2006, 54, 189-199.

T2 sequence (P06213 28-1382): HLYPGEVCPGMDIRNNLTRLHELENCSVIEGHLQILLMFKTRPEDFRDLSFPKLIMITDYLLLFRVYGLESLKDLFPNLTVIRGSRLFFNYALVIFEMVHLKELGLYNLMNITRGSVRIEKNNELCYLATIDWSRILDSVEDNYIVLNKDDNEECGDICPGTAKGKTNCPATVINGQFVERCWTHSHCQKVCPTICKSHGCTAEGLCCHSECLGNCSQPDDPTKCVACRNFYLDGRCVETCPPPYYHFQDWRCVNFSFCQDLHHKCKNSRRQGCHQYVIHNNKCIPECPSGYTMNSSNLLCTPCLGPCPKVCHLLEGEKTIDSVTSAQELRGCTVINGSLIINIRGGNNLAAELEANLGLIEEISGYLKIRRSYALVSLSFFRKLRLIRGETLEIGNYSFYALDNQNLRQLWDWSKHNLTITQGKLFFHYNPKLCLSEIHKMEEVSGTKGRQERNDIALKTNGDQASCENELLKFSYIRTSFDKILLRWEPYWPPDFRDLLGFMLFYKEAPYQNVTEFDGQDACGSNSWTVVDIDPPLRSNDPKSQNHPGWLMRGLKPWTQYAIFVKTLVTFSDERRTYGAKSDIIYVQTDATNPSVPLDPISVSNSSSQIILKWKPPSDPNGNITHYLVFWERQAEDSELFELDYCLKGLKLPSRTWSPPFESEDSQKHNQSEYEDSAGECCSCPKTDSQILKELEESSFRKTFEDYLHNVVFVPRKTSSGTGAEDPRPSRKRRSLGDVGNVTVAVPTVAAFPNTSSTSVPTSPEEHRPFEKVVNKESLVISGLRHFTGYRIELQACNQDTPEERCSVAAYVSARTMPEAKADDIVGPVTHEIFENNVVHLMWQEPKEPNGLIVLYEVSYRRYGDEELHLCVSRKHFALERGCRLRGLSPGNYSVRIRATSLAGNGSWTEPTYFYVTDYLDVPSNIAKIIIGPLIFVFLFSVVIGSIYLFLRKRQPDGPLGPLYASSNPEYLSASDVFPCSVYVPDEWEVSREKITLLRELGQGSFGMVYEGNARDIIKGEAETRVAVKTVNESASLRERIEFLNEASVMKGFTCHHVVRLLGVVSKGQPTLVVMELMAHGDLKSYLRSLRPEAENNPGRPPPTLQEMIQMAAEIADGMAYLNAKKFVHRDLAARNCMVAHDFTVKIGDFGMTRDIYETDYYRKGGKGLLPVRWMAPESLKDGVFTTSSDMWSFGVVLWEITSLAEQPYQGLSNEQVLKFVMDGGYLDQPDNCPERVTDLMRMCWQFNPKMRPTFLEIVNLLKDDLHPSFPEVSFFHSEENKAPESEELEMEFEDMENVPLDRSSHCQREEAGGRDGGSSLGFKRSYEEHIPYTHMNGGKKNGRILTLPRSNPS
Sequence of hERG (human ether-a-go-go-related gene) ion channel (Q12809 whole entry): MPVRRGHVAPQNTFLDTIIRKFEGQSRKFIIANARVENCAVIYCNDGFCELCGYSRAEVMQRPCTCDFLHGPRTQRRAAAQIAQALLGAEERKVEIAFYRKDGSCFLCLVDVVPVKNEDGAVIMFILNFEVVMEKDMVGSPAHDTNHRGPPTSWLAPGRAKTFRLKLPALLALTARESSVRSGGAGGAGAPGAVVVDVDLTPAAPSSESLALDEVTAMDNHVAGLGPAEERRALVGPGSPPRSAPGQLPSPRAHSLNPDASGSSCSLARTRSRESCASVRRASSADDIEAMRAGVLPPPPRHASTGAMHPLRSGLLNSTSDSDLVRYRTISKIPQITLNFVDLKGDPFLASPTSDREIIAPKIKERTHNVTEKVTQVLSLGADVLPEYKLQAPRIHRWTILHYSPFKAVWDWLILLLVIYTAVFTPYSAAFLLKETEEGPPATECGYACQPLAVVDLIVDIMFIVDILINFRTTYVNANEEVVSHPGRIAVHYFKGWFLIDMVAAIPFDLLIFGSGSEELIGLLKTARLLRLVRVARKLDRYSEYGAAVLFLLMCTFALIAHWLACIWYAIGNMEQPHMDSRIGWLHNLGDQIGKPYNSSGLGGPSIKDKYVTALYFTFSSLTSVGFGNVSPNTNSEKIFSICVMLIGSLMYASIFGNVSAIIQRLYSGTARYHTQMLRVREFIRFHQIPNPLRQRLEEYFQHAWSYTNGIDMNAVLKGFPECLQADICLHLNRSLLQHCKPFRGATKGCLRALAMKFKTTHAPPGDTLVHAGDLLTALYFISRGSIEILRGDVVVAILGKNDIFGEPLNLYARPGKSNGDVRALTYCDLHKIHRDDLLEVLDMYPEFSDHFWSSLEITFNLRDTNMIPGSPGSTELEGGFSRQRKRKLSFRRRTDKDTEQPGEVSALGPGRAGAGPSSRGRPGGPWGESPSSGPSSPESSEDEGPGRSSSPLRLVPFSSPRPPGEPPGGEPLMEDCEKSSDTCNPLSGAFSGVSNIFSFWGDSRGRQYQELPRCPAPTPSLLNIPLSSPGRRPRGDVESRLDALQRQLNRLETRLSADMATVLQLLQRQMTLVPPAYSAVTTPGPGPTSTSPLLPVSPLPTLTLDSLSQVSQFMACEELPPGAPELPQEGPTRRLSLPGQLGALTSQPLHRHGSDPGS
T1 sequence (P10635 whole entry): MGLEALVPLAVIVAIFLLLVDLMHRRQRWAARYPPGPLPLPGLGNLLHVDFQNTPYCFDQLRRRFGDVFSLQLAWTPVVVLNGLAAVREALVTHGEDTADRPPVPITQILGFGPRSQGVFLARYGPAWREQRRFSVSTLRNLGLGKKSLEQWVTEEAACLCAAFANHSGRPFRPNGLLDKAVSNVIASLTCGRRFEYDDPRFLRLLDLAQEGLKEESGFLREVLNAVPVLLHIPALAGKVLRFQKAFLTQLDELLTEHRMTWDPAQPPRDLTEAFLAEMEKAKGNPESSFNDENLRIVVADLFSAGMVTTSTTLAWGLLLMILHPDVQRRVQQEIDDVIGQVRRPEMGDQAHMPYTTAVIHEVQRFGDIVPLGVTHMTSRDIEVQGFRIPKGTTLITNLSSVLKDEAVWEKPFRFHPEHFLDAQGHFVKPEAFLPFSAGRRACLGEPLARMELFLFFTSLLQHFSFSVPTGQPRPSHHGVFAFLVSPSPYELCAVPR

With `COc1cc(Nc2cc(C)n[nH]2)nc(N2CCC[C@H]2c2cc(-c3ncccn3)no2)n1` [Example 1, (S)-6-Methoxy-2-{2-[3-(pyrimid-2-yl)isoxazol-5-yl]pyrrolidin-1-yl}-4-(5-methyl-1H-pyrazol-3-ylamino)pyrimidine], the IC50 (commonly the midpoint of a concentration-inhibition curve) in series [1] is more than 10 µM; against human IR, 0.035 µM; in series [3] it was more than 32 µM. For the same compound, the fraction unbound at 18 h, 20 µM in series [2] came out at 0.0523. Besides, the “difference in the Inhibition of Insulin Receptor Phosphorylation assay” value at human IR (Example 1 compared with Comparative Example A) is reported as “ten-fold”.
Consider `CCc1cc(Nc2cc(OC)nc(N3CCC[C@H]3c3cc(-c4ncccn4)no3)n2)n[nH]1` [Comparative Example A, (S)-6-Methoxy-2-{2-[3-(pyrimid-2-yl)isoxazol-5-yl]pyrrolidin-1-yl}-4-(5-ethyl-1H-pyrazol-3-ylamino)pyrimidine], for which the IC50 in series [1] is more than 10 µM; against human IR, 0.00325 µM; in series [3], 25.2 µM. For the same compound, in series [2], the fraction unbound at 18 h, 20 µM was determined as 0.0205.
